Data from patent US10485803B2, “Pyrimidine compounds as JAK kinase inhibitors” (THERAVANCE BIOPHARMA R&D IP, LLC, priority 2016, dated 2019).

Key:
[1] = biological target: JAK1 (Homo sapiens (Human), UniProt P23458); assay: LanthaScreen JAK biochemical assay, JAK1
Method: (§1) A panel of four LanthaScreen JAK biochemical assays (JAK1, 2, 3 and Tyk2) were carried in a common kinase reaction buffer (50 mM HEPES, pH 7.5, 0.01% Brij-35, 10 mM MgCl2, and 1 mM EGTA). Recombinant GST-tagged JAK enzymes and a GFP-tagged STAT1 peptide substrate were obtained from Life Technologies.
(§2) Serially diluted compounds were pre-incubated with each of the four JAK enzymes and the substrate in white 384-well microplates (Corning) at ambient temperature for 1 h. ATP was subsequently added to initiate the kinase reactions in 10 μl total volume, with 1% DMSO. […] The plates were allowed to incubate at ambient temperature for 1 h before being read on the EnVision reader (Perkin Elmer).
(§3) For dose-response analysis, percent inhibition data were plotted vs. compound concentrations, and IC50 values were determined from a 4-parameter robust fit model with the Prism software (GraphPad Software). Results were expressed as pIC50 (negative logarithm of IC50) and subsequently converted to pKi (negative logarithm of dissociation constant, Ki) using the Cheng-Prusoff equation.

[2] = system: IL-13 induced STAT6 phosphorylation in HT-29 human colorectal adenocarcinoma cells; assay: Cellular JAK potency assay: inhibition of IL-13; assay type: cell-based; conditions: HT-29 cells
Method: The potency of test compounds for inhibition of the JAK-dependent cytokine interleuken-13 (IL-13) was assessed by measuring IL-13 (IL-13, R&D Systems) induced STAT6 phosphorylation in HT-29 human colorectal adenocarcinoma cells (ATCC).
The anti-STAT6 antibody (Cell Signaling Technologies) was conjugated to AlphaScreen acceptor beads (Perkin Elmer), while the anti-pSTAT6 (pTyr641) antibody (Cell Signaling Technologies) was biotinylated using EZ-Link Sulfo-NHS-Biotin (Thermo Scientific).
HT-29 cells were grown at 37° C. in a 5% CO2 humidified incubator in McCoy's 5a Modified medium (ATCC) supplemented with 10% FBS (Hyclone), 100 U/mL penicillin, 100 μg/mL streptomycin (Life Technologies), and 2 mM GlutaMAX (Life Technologies). On day 1 of the assay, cells were seeded at a 7,500 cells/well density in white poly-D-lysine-coated 384-well plates (Corning) with 25 μL medium, and were allowed to adhere overnight in the incubator. On day 2 of the assay, the medium was removed and replaced with 12 μL of assay buffer (Hank's Balanced Salt Solution/HBSS, 25 mM HEPES, and 1 mg/ml bovine serum albumin/BSA) containing dose-responses of test compounds. Compounds were serially diluted in DMSO and then diluted another 1000-fold in media to bring the final DMSO concentration to 0.1%. Cells were incubated with test compounds at 37° C. for 1 h, and followed by the addition of 12 μl of pre-warmed IL-13 (12 ng/ml in assay buffer) for stimulation. After incubating at 37° C. for 30 min, the assay buffer (containing compound and IL-13) was removed, and 10 μl of cell lysis buffer (25 mM HEPES, 0.1% SDS, 1% NP-40, 5 mM MgCl2, 1.3 mM EDTA, 1 mM EGTA, and supplement with Complete Ultra mini protease inhibitors and PhosSTOP from Roche Diagnostics). The plates were shaken at ambient temperature for 30 min before the addition of detection reagents. A mixture of biotin-anti-pSTAT6 and anti-STAT6 conjugated acceptor beads was added first and incubated at ambient temperature for 2 h, followed by the addition of streptavidin conjugated donor beads (Perkin Elmer). After a minimum of 2 h incubation, the assay plates were read on the EnVision plate reader.
Results were expressed as the negative logarithm of the IC50 value, pIC50.

[3] = biological target: JAK2 (Homo sapiens (Human), UniProt O60674); assay: LanthaScreen JAK biochemical assay, JAK2
Method: as §1, §2, §3

[4] = Determination of absorption in cannulated rats; assay type: in vivo, Sprague Dawley rats; conditions: rat, oral vs IV dose, portal vein
Method: Oral bioavailability (F %), fraction absorbed (Fa%) and fraction escaping hepatic clearance (Fh%) were determined in Sprague Dawley rats from the following two studies:
(1) Pharmacokinetics in rats following an IV dose of test compound: Following IV dosing, plasma samples were typically collected from 0-6 hr. Drug levels were determined using an LC-MS-MS method. The resulting drug levels were used to compute the IV pharmacokinetic parameters: AUC IV and Dose IV.
(2) Rats that have been cannulated in their portal vein (PV) and also in their jugular vein (JV) were dosed orally with test compound. Following oral dosing, plasma samples were typically collected from 0-6 hr from both the portal vein and the jugular vein. Drug levels were determined using an LC-MS-MS method. The resulting drug levels were used to compute the following pharmacokinetic parameters: AUC PO PV, AUC PO JV, and Dose PO.
Using data derived from the above studies, the oral bioavailability F %, and the quantities Fa% and Fh% were calculated from the following formulas: F%=(AUC PO JV/AUC IV)*(Dose IV/Dose PO)*100 Fa%=(AUC PO PV/AUC IV)*(Dose IV/Dose PO)*100 Fh%=AUC PO JV/AUC PO PV • where: • AUC PO JV=Area under the curve following oral dose and plasma collected from the jugular vein • AUC PO PV=Area under the curve following oral dose and plasma collected from the portal vein • AUC IV=Area under the curve following an intravenous dose • Dose IV=Intravenous Dose in mg/kg • Dose PO=Oral Dose in mg/kg

[5] = system: oxazolone-induced colitis; assay: Mouse model of oxazolone-induced colitis; assay type: in vivo, BALB/C mice; conditions: mice, PO, 1, 3, and/or 10 mg/kg BID
Method: Oxazolone-induced colitis is an experimental model that has a histological resemblance to human ulcerative colitis (Heller et al. […], 2002, 17, 629-638). Adult BALB/C mice from Harlan were used in the assay. On day 1, animals were lightly anesthetized with isoflurane and the hairs between the shoulder were carefully removed before oxazolone (4%, 150 μL, 4:1 acetone: olive oil formulation) or vehicle solution was slowly applied for skin sensitization. Seven days after skin sensitization, the mice were fasted overnight, anesthetized with isoflurane inhalation, and a 1 mL syringe equipped with a 3.5-F catheter, filled with oxazolone solution, was inserted carefully about 4 cm into the colon of the mouse. Following insertion, 50 μL of the oxazolone solution (1%, 1:1 ethanol:water formulation) was injected very slowly (over 30 sec using an injection pump) into the colon. The catheter was removed and the mice were held vertically (head down) for 2 min to ensure that the entire oxazolone solution remained inside the colon. Drug treatment (PO, BID or TID) or vehicle was initiated a day prior to the oxazolone intrarectal (IR) challenge. Two-day post oxazolone intrarectal challenge, the Disease Activity Index (DAI) was assessed by treatment-blinded experimenters for each mouse according to the criteria score: stool consistency score (0, normal; 2, loose; 4, diarrhea), gross bleeding score (0, absence; 2, blood tinged; 4, presence), and weight loss score (0, none; 1, 1%-5%; 2, 5%-10%; 3, 10%-20%; 4, more than 20%); DAI=average of (stool consistency score+gross bleeding score+weight loss score).

[6] = Dynamic moisture sorption assessment; assay type: physicochemical; conditions: for hygroscopicity: 5% to 90% RH, two cycles of sorption and desorption; for weight gain in the humidity range of 5% to 90% relative humidity: 25° C. / room temperature
Method: Dynamic moisture sorption (DMS) measurement was performed using a VTI atmospheric microbalance, SGA-100 system (VTI Corp., Hialeah, Fla. 33016). A weighed sample was used and the humidity was lowest possible value (close to 0% RH) at the start of the analysis. The DMS analysis consisted of an initial drying step (0% RH) for 120 minutes, followed by two cycles of sorption and desorption with a scan rate of 5% RH/step over the humidity range of 5% RH to 90% RH. The DMS run was performed isothermally at 25° C.

Chain of JAK2 (O60674 whole entry): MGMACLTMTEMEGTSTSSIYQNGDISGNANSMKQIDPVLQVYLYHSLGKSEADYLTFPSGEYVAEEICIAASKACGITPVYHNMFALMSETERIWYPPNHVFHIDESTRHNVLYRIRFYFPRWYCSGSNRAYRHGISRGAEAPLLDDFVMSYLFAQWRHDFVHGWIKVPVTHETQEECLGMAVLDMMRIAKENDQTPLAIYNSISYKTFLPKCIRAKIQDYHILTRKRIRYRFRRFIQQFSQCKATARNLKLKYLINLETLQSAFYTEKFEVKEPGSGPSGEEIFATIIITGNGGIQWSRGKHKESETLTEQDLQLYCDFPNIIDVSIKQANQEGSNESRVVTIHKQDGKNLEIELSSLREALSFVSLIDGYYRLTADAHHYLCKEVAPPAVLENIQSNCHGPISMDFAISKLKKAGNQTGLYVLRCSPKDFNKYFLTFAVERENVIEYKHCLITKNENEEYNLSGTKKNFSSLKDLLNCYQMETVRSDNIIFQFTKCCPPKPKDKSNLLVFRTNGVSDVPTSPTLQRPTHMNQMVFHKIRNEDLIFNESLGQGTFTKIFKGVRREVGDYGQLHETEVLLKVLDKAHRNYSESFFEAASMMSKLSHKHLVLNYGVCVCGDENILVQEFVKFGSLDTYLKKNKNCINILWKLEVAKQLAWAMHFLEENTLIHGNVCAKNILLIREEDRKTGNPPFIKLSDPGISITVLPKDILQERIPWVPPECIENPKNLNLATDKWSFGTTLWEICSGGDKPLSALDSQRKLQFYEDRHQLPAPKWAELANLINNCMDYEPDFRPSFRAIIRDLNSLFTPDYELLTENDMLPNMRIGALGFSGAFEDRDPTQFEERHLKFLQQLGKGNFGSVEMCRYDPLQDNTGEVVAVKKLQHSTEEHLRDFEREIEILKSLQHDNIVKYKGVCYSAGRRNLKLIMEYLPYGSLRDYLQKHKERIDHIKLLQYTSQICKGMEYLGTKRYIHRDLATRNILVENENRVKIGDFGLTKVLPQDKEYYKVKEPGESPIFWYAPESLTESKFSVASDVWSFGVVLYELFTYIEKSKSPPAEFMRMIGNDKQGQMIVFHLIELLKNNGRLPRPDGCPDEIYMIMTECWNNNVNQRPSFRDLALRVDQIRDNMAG
Chain of JAK1 (P23458 whole entry): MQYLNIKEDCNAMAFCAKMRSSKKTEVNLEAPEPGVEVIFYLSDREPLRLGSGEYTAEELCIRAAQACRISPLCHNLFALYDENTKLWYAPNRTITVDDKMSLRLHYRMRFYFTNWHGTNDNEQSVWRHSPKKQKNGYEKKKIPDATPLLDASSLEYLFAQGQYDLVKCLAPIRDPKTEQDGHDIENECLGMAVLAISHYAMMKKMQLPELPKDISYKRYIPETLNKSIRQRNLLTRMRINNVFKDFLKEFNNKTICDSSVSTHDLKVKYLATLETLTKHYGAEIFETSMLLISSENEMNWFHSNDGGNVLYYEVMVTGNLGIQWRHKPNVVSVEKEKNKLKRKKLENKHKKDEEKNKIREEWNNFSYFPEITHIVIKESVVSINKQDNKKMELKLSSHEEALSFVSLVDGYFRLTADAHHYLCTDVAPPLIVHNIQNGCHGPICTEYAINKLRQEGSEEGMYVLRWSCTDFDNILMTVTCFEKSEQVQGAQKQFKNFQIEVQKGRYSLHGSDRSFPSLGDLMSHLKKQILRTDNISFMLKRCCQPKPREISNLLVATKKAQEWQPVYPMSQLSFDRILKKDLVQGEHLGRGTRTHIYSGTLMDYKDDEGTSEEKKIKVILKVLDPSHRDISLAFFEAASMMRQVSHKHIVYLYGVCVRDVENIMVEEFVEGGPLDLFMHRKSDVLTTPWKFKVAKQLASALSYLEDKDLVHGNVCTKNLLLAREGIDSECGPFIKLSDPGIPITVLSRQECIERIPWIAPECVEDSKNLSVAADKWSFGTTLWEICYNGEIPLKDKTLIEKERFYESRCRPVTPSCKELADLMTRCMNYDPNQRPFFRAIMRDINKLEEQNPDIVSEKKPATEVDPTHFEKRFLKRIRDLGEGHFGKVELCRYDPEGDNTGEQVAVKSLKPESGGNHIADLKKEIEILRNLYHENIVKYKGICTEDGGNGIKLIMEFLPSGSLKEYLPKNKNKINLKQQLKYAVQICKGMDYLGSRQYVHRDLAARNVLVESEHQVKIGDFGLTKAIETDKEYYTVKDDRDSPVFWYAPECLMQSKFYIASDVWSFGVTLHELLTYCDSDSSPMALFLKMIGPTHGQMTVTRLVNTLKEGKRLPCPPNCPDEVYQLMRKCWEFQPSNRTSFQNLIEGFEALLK

With `COc1cc(Nc2cc(CO)[nH]n2)nc(N[C@@H]2C[C@H]3CCC[C@@H](C2)N3S(=O)(=O)N2CC(C#N)C2)n1` [Example 1-6, 1-(((1R,3s,5S)-3-((4-((5-(hydroxymethyl)-1H-pyrazol-3-yl)amino)-6-methoxypyrimidin-2-yl)amino)-9-azabicyclo[3.3.1]nonan-9-yl)sulfonyl)azetidine-3-carbonitrile] the “JAK 1 (pKi)” value [1] was “A (A represents a pKi value ≥10 (Ki≤0.1 nM))”.
With `COc1cc(Nc2cc(CO)[nH]n2)nc(N[C@@H]2C[C@H]3CCC[C@@H](C2)N3S(=O)(=O)c2ccccc2)n1` [Example 1-8, (3-((6-methoxy-2-(((1R,3s,5S)-9-(phenylsulfonyl)-9-azabicyclo[3.3.1]nonan-3-yl)amino)pyrimidin-4-yl)amino)-1H-pyrazol-5-yl)methanol] the “HT-29 (pIC50)” value [2] was “A (A represents a pIC50 value ≥7.5 (IC50≤32 nM))” and the “JAK 1 (pKi)” value [1] was “A (A represents a pKi value ≥10 (Ki≤0.1 nM))”.
For `COc1cc(Nc2cc(CO)[nH]n2)nc(N(C)[C@@H]2C[C@H]3CCC[C@@H](C2)N3S(=O)(=O)N2CCCC2)n1` [Example 1-13, (3-((6-methoxy-2-(methyl((1R,3s,5S)-9-(pyrrolidin-1-ylsulfonyl)-9-azabicyclo[3.3.1]nonan-3-yl)amino)pyrimidin-4-yl)amino)-1H-pyrazol-5-yl)methanol], the “JAK 2 (pKi)” value [3] was “A (A represents a pKi value ≥10 (Ki≤0.1 nM))”, the “HT-29 (pIC50)” value [2] was “A (A represents a pIC50 value ≥7.5 (IC50≤32 nM))” and the “JAK 1 (pKi)” value [1] was “A (A represents a pKi value ≥10 (Ki≤0.1 nM))”.
For `COc1cc(Nc2cc(CO)[nH]n2)nc(N(C)[C@@H]2C[C@H]3CCC[C@@H](C2)N3S(=O)(=O)C2CC2)n1` [Example 1-14, (3-((2-(((1R,3s,5S)-9-(cyclopropylsulfonyl)-9-azabicyclo[3.3.1]nonan-3-yl)(methyl)amino)-6-methoxypyrimidin-4-yl)amino)-1H-pyrazol-5-yl)methanol], the “JAK 2 (pKi)” value [3] was “A (A represents a pKi value ≥10 (Ki≤0.1 nM))” and the “HT-29 (pIC50)” value [2] was “A (A represents a pIC50 value ≥7.5 (IC50≤32 nM))”.
With `COc1cc(Nc2cc(CO)[nH]n2)nc(N(C)[C@@H]2C[C@H]3CCC[C@@H](C2)N3S(=O)(=O)c2cccnc2)n1` [Example 1-15, (3-((6-methoxy-2-(methyl((1R,3s,5S)-9-(pyridin-3-ylsulfonyl)-9-azabicyclo[3.3.1]nonan-3-yl)amino)pyrimidin-4-yl)amino)-1H-pyrazol-5-yl)methanol] the “JAK 2 (pKi)” value [3] was “A (A represents a pKi value ≥10 (Ki≤0.1 nM))”.
For `COc1cc(Nc2cc(CO)[nH]n2)nc(N(C)[C@@H]2C[C@H]3CCC[C@@H](C2)N3S(=O)(=O)N2CCC2)n1` [Example 1-17, (3-((2-(((1R,3s,5S)-9-(azetidin-1-ylsulfonyl)-9-azabicyclo[3.3.1]nonan-3-yl)(methyl)amino)-6-methoxypyrimidin-4-yl)amino)-1H-pyrazol-5-yl)methanol], the “JAK 2 (pKi)” value [3] was “A (A represents a pKi value ≥10 (Ki≤0.1 nM))” and the “HT-29 (pIC50)” value [2] was “A (A represents a pIC50 value ≥7.5 (IC50≤32 nM))”.
With `COc1cc(Nc2cc(CO)[nH]n2)nc(N(C)[C@@H]2C[C@H]3CCC[C@@H](C2)N3S(=O)(=O)c2cncc(F)c2)n1` [Example 1-19, (3-((2-(((1R,3s,5S)-9-((5-fluoropyridin-3-yl)sulfonyl)-9-azabicyclo[3.3.1]nonan-3-yl)(methyl)amino)-6-methoxypyrimidin-4-yl)amino)-1H-pyrazol-5-yl)methanol] the “HT-29 (pIC50)” value [2] was “A (A represents a pIC50 value ≥7.5 (IC50≤32 nM))”.
With `COc1cc(Nc2cc(CO)[nH]n2)nc(N(C)[C@@H]2C[C@H]3CCC[C@@H](C2)N3S(C)(=O)=O)n1` [Example 3, (3-((6-methoxy-2-(methyl((1R,3s,5S)-9-(methylsulfonyl)-9-azabicyclo[3.3.1]nonan-3-yl)amino)pyrimidin-4-yl)amino)-1H-pyrazol-5-yl)methanol] the “absorption at the portal vein (Fa%)” value [4] was “greater than 40%”.
For `COCCS(=O)(=O)N1[C@@H]2CCC[C@H]1C[C@H](N(C)c1nc(Nc3cc(CO)[nH]n3)cc(OC)n1)C2` [Example 4, (3-((6-methoxy-2-(((1R,3s,5S)-9-((2-methoxyethyl)sulfonyl)-9-azabicyclo[3.3.1]nonan-3-yl)(methyl)amino)pyrimidin-4-yl)amino)-1H-pyrazol-5-yl)methanol], the “decrease in DAI score as compared with vehicle treated animals” value [5] was “statistically significant decrease” and the “absorption at the portal vein (Fa%)” value [4] was “greater than 40%”.
For `COc1cc(Nc2cc(CO)[nH]n2)nc(N(C)[C@@H]2C[C@H]3CCC[C@@H](C2)N3C(=O)C(F)F)n1` [Example 9, 2,2-difluoro-1-((1R,3s,5S)-3-((4-((5-(hydroxymethyl)-1H-pyrazol-3-yl)amino)-6-methoxypyrimidin-2-yl)(methyl)amino)-9-azabicyclo[3.3.1]nonan-9-yl)ethan-1-one], the IC50 ([2]; Homo sapiens, read-out: HT-29 (pIC50) (converted)) was 31.6 to 200 nM.
In the case of `COc1cc(Nc2cc(CO)[nH]n2)nc(N(C)[C@@H]2C[C@H]3CCC[C@@H](C2)N3S(=O)(=O)N2CC(C#N)C2)n1` [Form I, 1-(((1R,3s,5S)-3-((4-((5-(hydroxymethyl)-1H-pyrazol-3-yl)amino)-6-methoxypyrimidin-2-yl)(methyl)amino)-9-azabicyclo[3.3.1]nonan-9-yl)sulfonyl)azetidine-3-carbonitrile], the hygroscopicity [6] is reported as “non-hygroscopic”, the “weight gain in the humidity range of 5% to 90% relative humidity” value (shortened to “weight gain … to 90% relative humidity”) [6] is reported as “less than 0.4%” and the “weight gain … to 90% relative humidity” value ([6]; listed as Crystalline 1-((1R,3s,5S)-3-((4-((5-(hydroxymethyl)-1H-pyrazol-3-yl)amino)-6-me)))) is reported as “less than 0.4%”.
In the case of `COc1cc(Nc2cc(CO)[nH]n2)nc(N(C)[C@@H]2C[C@H]3CCC[C@@H](C2)N3S(=O)(=O)N2CC(C#N)C2)n1` [Form II, 1-(((1R,3s,5S)-3-((4-((5-(hydroxymethyl)-1H-pyrazol-3-yl)amino)-6-methoxypyrimidin-2-yl)(methyl)amino)-9-azabicyclo[3.3.1]nonan-9-yl)sulfonyl)azetidine-3-carbonitrile], the hygroscopicity [6] is reported as “slightly hygroscopic” and the “weight gain … to 90% relative humidity” value [6] is reported as “about 1.2%”.
